# Source: PMC7072451, “Membrane Binding of Neuronal Calcium Sensor-1: Highly Specific Interaction with Phosphatidylinositol-3-Phosphate” (Biomolecules, 2020)
# Target: T1, myristoylated NCS-1 (NCS-1^WT) (Homo sapiens, UniProt P62166)
# T1 construct: gene NCS1; full-length, N-myristoylated by co-expressed yeast NMT in E. coli (pET22b+), sulfo-cyanine-3 maleimide labelled; unlabelled protein used as titrant
# Experiment: fluorescence correlation spectroscopy, titration of PI liposomes with unlabelled protein
# Type: binding
# Details: Ca2+ present (1 mM CaCl2), pH 8.0, 100 mM NaCl; multilamellar liposomes of brain PI; concentration is of the protein; highly cooperative; sulfo-cyanine-3 labelled protein; read-out: dissociation constant
# T1 sequence (P62166 2-190): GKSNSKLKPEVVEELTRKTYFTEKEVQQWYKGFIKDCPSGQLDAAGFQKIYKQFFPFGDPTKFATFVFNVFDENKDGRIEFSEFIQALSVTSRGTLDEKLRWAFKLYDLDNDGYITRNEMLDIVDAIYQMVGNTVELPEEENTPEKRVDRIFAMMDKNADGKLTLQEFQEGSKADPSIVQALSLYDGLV
substance,measurement,value
phosphatidylinositol,Kd,3000 nM
